Measurements reported in patent EP4424699A1, “HBV CORE PROTEIN BINDING COMPOUNDS AND USES THEREOF” (Julius-Maximilians-Universität Würzburg, priority 2023, dated 2024).
pIC50, pKd: −log10 of the molar value. Positions of bridges follow the written chain, without caps; N, C: chain ends. Non-standard residues stand in square brackets, D forms with d. Residues, ends and D or L forms follow the SMILES beside them. Chains are numbered I, II in the order given. AEEA = NCCOCCOCC(=O)O

How the values were obtained:
[1] = biological target: T1, fl wt HBc capsids (Hepatitis B virus genotype D subtype ayw, UniProt P03146); assay: Isothermal titration calorimetry (ITC) of peptide dimers with HBc capsids; format: binding
T1 construct: Full length wild type (fl wt) HBc; made in house; host or cells: E. coli
Method: Binding stoichiometry, binding affinity and thermodynamic parameters were determined. Table 2 iTC200 instrument's specifications used for the interaction analysis between peptide-dimers and capsids.

[2] = biological target: T2, HBc (Hepatitis B virus genotype D subtype ayw, UniProt P03146); assay: Turbidity assay of HBc solutions at 350 nm; details: 50 µM HBc solution, RT
T2 construct: Full length wild type (fl wt) HBc; made in house; host or cells: E. coli
Method: The concentrations of the P1-, P2- and SLLGRM-dimers were varied between 0.1-100 µM and the concentration of HBc kept constant at 10 µM for the P1- and P2-dimer and at 50 µM for the SLLGRM-dimer. All experiments were performed using a standard photometer (GENESYS™ UV/VIS spectral photometer, Thermo Fisher Scientific, Hillsboro, OR, USA) at RT and at a wavelength of 350 nm using disposable UV transparent cuvettes.

[3] = physchem; details: buffer obtained from the dialysis of capsids (buffer A), pH 7.5, aqueous buffer
Method: Purified and pooled fractions (ca 8 ml) of capsids were filtered (Rotilabo syringe filter with a pore size of 220 nm, Carl Roth GmbH Co. KG, Karlsruhe, Germany), dialysed against 1.4 L buffer A (40 mM HEPES, 200 mM NaCl, 1 mM MgCl2, 1 mM CaCl2, pH 7.5) using a dialysis membrane tube (Spectra Por Biotech cellulose ester tube, 1 MDa MWCO, Spectrum Laboratories, Inc., Rancho Dominguez, CA, USA). The dialysis was performed at 4 °C under gentle stirring for 16 h overnight. Next day, the dialysed sample was removed from the dialysis tube and concentrated in a centrifuge using a concentrator (30 kDa MWCO Spin-X UF 6 mL, Corning Inc., Corning, NY, USA). Before the determination of the concentration by the Bradford assay (Roti Nanoquant, Carl Roth GmbH Co. KG, Karlsruhe, Germany) the concentrate was filtered (centrifugal filter unit Ultrafree MC, pore size of 100 nm, Merck KGaA, Darmstadt, Germany). The dimeric peptides were dissolved in the buffer obtained from the dialysis of capsids. […] Before filling the ITC cell and syringe, all samples were degassed for 10 minutes at 20 °C (ThermoVac, Malvern Panalytical, Malvern, Worcestershire, UK). Using a MicroCal iTC200 instrument (Malvern Panalytical, Malvern, Worcestershire, UK) solutions of dimeric peptides were titrated into solutions of capsids according to specifications in the Table 2. […]

[4] = biological target: T3, HBc capsids (Hepatitis B virus genotype D subtype ayw, UniProt P03146); assay: Cryo-EM of HBc capsids in complex with peptide dimers; format: binding; set-up: Full length wild type (fl wt) HBc; made in house; host or cells: E. coli; details: from EM-maps
Method: In a plasma cleaner (model PDC-002. Harrick Plasma, Ithaca, NY, USA) holey carbon grids (R1.2/1.3, 300 mesh Cu grids, Quantifoil Micro Tools, Jena, Germany) were made hydrophilic by plasma discharging. This was done at a pressure of 29 Pa for 2 minutes using ambient air as plasma medium at "medium power" of the instrument. First, solutions of purified HBc (200 µM) in complex with the P1dC- and the SLLGRM-dimer (each 400 µM) were prepared in buffer A and 3.5 µl aliquots of each sample were applied onto the grids. For plunge freezing of grids ethane was used as medium (liquefied by liquid nitrogen) with the help of a Vitrobot (mark IV, FEI Company, Hillsboro, OR, USA) using filter papers of Whatman (type 541). The Vitrobot had following settings: no wait and drain times, 6 s of blot time, blot force of 25 and a nominal humidity of 100 %. The frozen grids were stored in liquid nitrogen for at least one night before being used for image acquisition.
Cryo-EM was done as previously described (Makbul, Kraft, et al., 2021). In brief: Movies were acquired with the software EPU on a Krios G3 electron microscope equipped with a Falcon III camera (Thermo Fisher Scientific, Hillsboro, OR, USA) in linear mode at a magnification of 75,000 with an accelerating voltage of 300 kV. The total exposure was 40 e-/Å^2 and was fractionated across 20 fractions. […]

[5] = biological target: HBc's interaction to the surface protein L-HBs (Hepatitis B virus genotype D subtype ayw, UniProt P03146); details: result in words; cited from earlier work
[6] = biological target: T3, HBc capsids; details: monomeric peptides; cited from earlier work
[7] = system: HBV production in Hep G2 human hepatoblastoma cell lines; details: cited from earlier work; for pIC50: inhibition of HBV production
[8] = biological target: full-length wild type HBc (fl wt HBc) (Hepatitis B virus genotype D subtype ayw, UniProt P03146); details: result in words; cited from earlier work
[9] = biological target: full length wild type HBV core protein (fl wt HBc), capsids (Hepatitis B virus (genotype D; strain ayw)) (UniProt P03146); assay: cryo-EM maps of HBc capsids with bound dimer
[10] = biological target: full length wild type HBV core protein (fl wt HBc), capsids (Hepatitis B virus (genotype D; strain ayw)) (UniProt P03146); assay: ITC, dimer titrated into fl wt HBc capsids, 20 °C, one site model
[11] = biological target: full length wild type HBV core protein (fl wt HBc), capsids (Hepatitis B virus (genotype D; strain ayw)) (UniProt P03146); assay: ITC KD of the dimer against the literature KD of monomeric SLLGRM

CSCC[C@H](NC(=O)[C@H](CCCNC(=N)N)NC(=O)CNC(=O)[C@H](CC(C)C)NC(=O)[C@H](CC(C)C)NC(=O)[C@@H](N)CO)C(=O)NCCOCCOCC(=O)NCCOCCOCC(=O)NCCOCCOCC(=O)NCCOCCOCC(=O)NCCCC[C@@H](NC(=O)COCCOCCNC(=O)COCCOCCNC(=O)COCCOCCNC(=O)COCCOCCNC(=O)[C@H](CCSC)NC(=O)[C@H](CCCNC(=N)N)NC(=O)CNC(=O)[C@H](CC(C)C)NC(=O)[C@H](CC(C)C)NC(=O)[C@@H](N)CO)C(=O)O [SLLGRM-dimer] (I: H-SLLGRM[AEEA][AEEA][AEEA][AEEA][dK]-OH / II: H-SLLGRM[AEEA][AEEA][AEEA][AEEA]; amide I:11-II:C; N-terminus and C-terminus assumed)
affinity increase over the respective monomers ([1]; KD of dimer versus KD of monomer): 26 fold
Ka ([1]; association constant, ITC at 20 °C, refers to monomeric HBc): 208200 ±31284 (1)/(M)
ΔH ([1]; binding enthalpy, ITC): -25.316 ± 2.748 kcal/mol
ΔS ([1]; binding entropy, ITC): -62 ±10 (cal)/(mol × K)
N ([1]; stoichiometry, ITC at 20 °C, one site model, refers to monomeric HBc): 0.145 ±0.023
concentration inducing turbidity [2]: high micromolar concentrations
solubility [3]: ≥ 8 mM
molar ratio to HBc capsids [4]: 0.25

ALLGRMKG [21]
inhibition of HBc's interaction to L-HBs [5]: inhibited

GSLLGRMKGA [Pep2]
pKd [6]: 4.17
production HB viruses reduced to ([7]; at high micromolar concentrations): ca. 30%
pIC50 [7]: 6.10

LLGRMK
binding to fl wt HBc [8]: bound

MHRSLLGRMKGA [Pep1]
pKd [6]: 4.59

SLLGRM
pKd [6]: 3.89

SLLGRM-dimer (peptide)
molar ratio [9]: 0.25
pKd [10]: 5.31
N (stoichiometry) [10]: 0.145
binding enthalpy (ΔH) [10]: -25300
binding entropy (ΔS) [10]: -62
fold affinity increase over the respective monomer [11]: 26 fold

SLLGRMKG [23]
pIC50 [7]: 5.19

SLLGRMKGA [22]
pIC50 [7]: 5.62
